Data from US20250199015A1, “CYCLIN-DEPENDENT KINASE 2 INHIBITORS FOR MEDICAL TREATMENT” (INCYCLIX BIO, LLC, priority 2022, published 2025).
Entries after “also recorded” stand apart in the source; their conditions may differ. Read-outs that look alike come from different tables or passages of the source.

Legend:
CYP3A4 transcription = test: CYP induction (transcription); format: in vitro ADME; conditions: up to 3 μM, 24 hours
COV318 cells = test: CellTiter Glo cell proliferation assay; format: cell-based, human; conditions: CCNE1 amplified, six days
Method: Plates were returned to the incubator for six additional days. On day six post dosing, plates were removed and treated with CellTiter Glo reagent following manufacturer's specifications. Plates were incubated 45 minutes at room temperature and run on Biotek luminometer with 1 sec/well detection. Results were converted to Microsoft Excel and transferred to Graphpad Prism for analysis. […] These cell types are distinguished by either gained of cyclin E1 expression or activation (Kuramochi) or intrinsic amplification of cyclin E1 (OVCAR-3, COV318).

[1] = molecular target: bile salt export pump (BSEP) (Homo sapiens, UniProt O95342); test: Transporter inhibition; format: in vitro ADME
[2] = test system: HCC-1569 cell loaded Hollow Fibers; test: Mouse hollow fiber assay (CellTiter Glo); format: in vivo, mice; conditions: 75, 100, 150 mg/kg twice daily, Day 16
Method: The mouse hollow fiber assay was conducted using three tumor cell lines, OVCAR-3 (ovarian), MKN-1 (gastric), and HCC-1569 (breast), 1e7 OVCAR-3, 5e6 MKN-1, and 1e7 HCC-1569 cells were loaded into Hollow Fibers, placed in cell culture dishes containing RPMI-1640 with 20% FCS and 1% penicillin/streptomycin, and were equilibrated in an incubator at 37 C, 5% CO2 overnight. On Day 0, three fibers were implanted in two different compartments: subcutaneous and intraperitoneal of twenty-four female NMRI nude mice ages 4-5 weeks. […] Female NMRI nude mice were implanted both subcutaneously and intraperitoneally with HCC-1569, MKN1, and OVCAR3 tumor cell-loaded Hollow Fibers on Day 0. The number of animals alive on Day 0 (implantation) and on Day 16 (necropsy) in each group is shown in parentheses in the legend.
HCC-1569 cell loaded Hollow Fibers were implanted both subcutaneously and intraperitoneally into female NMRI nude mice on Day 0. Hollow Fibers were collected during necropsy on Day 16 and analyzed using a CellTiter Glo® assay.

Plasma protein binding = format: in vitro ADME; conditions: across all species tested, read-out: bound to plasma proteins
BCRP = molecular target: T1, BCRP (Homo sapiens, UniProt Q9UNQ0); test: ABC transporter inhibition, inside-out membrane vesicles; format: in vitro ADME
T1 construct: expressed in transfected cells; inside-out membrane vesicles
Method: The reaction was initiated with the addition of ATP or AMP to the solution and following the incubation time, the reaction was stopped by the addition of 200 μL of ice-cold washing buffer and immediate filtration via glass fiber filters mounted to a 96-well plate (filter plate). The filters were washed, dried, and the amount of substrate inside the filtered vesicles was determined by liquid scintillation counting. E3S (1 μM; Sigma-Aldrich E0251) for BCRP was used as positive control substrates.

[3] = GLP 28-day oral toxicity and toxicokinetics study; format: in vivo, Beagle dogs; conditions: for AUC0-24 / AUC(0-t) / Cmax / Tmax: Beagle, po
Method: Nominal dose values and sampling times were used for calculations. Any concentration reported as BLQ (LLOQ<1.0 ng/mL) was set equal to zero. Toxicokinetic analyses included Cmax, Tmax, AUC0-24, t1/2, RA Cmax, and RA AUC0-24. Forty (20 per sex) Beagle dogs were randomly assigned to groups and dosed twice daily (approximately 8 hours+1-hour apart) via oral gavage for 28 consecutive days.
Based on the absence of dose-limiting toxicity, the 28-day highest nonseverely toxic dose (HNSTD) was 250 mg/kg BID (500 mg/kg/day).

MATE1 = MATE1 (Homo sapiens, UniProt Q96FL8); test: SLC transporter inhibition in HEK293 cells
human OCT2 = molecular target: T2, human OCT2 (Homo sapiens, UniProt O15244); test: SLC transporter inhibition in HEK293 cells; format: in vitro ADME
T2 construct: expressed in transfected cells; host or cells: HEK293
T2 sequence (O15244 1-555): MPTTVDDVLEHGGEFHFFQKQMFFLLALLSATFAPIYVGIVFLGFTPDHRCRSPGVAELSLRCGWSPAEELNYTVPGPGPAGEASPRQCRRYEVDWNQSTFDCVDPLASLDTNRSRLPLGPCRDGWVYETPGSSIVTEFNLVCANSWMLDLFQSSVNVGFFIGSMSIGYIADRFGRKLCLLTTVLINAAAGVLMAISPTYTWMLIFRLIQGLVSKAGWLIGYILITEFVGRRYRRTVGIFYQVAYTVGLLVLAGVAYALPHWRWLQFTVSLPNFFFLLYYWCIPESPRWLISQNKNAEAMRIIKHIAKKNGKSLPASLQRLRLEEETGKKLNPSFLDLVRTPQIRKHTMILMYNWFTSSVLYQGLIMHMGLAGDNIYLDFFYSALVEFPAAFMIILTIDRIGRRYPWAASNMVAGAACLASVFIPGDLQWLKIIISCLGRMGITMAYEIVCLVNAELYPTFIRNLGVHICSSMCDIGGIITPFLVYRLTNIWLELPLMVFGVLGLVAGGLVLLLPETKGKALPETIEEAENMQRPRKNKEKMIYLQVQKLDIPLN

[4] = female, dog, in vivo, 20 mg/kg/day
[5] = female, dog, in vivo, 100 mg/kg/day
[6] = female, dog, in vivo, 500 mg/kg/day
[7] = male, dog, in vivo, 100 mg/kg/day
[8] = male, dog, in vivo, 500 mg/kg/day

MATE1, sequence (Q96FL8 whole entry): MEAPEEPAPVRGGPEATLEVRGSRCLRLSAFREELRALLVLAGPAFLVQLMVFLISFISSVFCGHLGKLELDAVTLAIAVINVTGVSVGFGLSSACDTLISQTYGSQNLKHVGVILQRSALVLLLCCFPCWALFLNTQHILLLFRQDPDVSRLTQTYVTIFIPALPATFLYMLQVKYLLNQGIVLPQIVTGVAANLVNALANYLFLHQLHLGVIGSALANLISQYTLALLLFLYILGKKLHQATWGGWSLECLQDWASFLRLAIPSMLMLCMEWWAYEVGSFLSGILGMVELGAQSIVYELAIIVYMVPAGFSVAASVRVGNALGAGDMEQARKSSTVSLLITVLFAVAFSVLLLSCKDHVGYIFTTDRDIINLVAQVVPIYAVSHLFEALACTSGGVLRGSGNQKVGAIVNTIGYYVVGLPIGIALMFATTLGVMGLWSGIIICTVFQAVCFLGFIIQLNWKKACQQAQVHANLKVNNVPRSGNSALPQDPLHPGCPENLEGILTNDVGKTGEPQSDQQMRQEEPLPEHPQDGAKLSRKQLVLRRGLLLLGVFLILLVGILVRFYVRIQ
T1 sequence (Q9UNQ0 whole entry): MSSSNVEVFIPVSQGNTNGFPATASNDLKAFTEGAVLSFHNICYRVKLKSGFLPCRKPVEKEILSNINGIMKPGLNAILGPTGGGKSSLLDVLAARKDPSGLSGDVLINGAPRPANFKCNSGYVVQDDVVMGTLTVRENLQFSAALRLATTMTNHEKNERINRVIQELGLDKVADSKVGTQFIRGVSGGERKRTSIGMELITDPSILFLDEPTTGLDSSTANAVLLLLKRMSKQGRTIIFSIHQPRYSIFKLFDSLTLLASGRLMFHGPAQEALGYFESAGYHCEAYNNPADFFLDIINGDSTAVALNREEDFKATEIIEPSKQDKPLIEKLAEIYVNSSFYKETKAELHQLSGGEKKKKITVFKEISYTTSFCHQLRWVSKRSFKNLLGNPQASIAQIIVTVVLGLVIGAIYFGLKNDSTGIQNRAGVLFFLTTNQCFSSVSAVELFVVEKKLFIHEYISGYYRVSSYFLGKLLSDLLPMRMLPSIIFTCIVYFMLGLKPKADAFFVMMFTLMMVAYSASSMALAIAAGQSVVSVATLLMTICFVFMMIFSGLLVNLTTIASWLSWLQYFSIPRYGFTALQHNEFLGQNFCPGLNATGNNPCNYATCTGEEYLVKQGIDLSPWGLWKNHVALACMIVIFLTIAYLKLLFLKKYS
bile salt export pump (BSEP), sequence (O95342 whole entry): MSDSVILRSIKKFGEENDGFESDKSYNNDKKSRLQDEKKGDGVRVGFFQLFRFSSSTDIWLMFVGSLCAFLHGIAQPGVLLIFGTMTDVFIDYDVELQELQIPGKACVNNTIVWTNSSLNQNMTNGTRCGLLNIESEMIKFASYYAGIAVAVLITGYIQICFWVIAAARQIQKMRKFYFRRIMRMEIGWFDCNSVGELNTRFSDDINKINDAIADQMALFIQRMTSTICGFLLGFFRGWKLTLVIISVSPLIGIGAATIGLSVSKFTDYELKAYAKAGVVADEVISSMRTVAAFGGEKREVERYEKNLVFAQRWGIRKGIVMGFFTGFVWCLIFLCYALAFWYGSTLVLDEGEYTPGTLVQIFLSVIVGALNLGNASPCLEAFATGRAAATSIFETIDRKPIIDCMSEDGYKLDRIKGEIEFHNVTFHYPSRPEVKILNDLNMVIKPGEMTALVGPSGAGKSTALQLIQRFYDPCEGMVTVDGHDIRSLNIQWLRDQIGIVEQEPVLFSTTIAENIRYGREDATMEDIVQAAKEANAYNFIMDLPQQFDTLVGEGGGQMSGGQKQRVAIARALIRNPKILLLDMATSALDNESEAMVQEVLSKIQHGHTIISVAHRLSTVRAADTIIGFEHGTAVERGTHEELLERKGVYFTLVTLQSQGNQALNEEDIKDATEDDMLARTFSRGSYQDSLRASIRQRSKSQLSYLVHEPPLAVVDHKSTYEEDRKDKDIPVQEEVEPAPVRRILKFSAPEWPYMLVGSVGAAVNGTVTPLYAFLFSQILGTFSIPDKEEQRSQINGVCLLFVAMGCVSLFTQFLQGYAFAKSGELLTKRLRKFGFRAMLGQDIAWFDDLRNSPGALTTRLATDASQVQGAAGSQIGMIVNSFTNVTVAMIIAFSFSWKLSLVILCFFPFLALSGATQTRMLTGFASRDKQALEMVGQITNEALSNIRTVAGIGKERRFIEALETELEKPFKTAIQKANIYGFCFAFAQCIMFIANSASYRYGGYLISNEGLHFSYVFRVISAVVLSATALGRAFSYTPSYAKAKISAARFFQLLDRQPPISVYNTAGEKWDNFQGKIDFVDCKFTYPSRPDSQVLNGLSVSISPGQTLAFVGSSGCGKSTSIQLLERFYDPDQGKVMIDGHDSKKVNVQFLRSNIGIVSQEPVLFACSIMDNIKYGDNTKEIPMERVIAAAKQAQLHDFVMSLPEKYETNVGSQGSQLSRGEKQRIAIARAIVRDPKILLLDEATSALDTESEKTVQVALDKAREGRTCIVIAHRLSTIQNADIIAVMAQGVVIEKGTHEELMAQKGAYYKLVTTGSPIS

In the case of NS(=O)(=O)c1ccc(Nc2ncc3cc4n(c3n2)C2(CCCCC2)C(=O)NN4)cc1 [Compound I], the “induction of CYP3A4 transcription” value (CYP3A4 transcription) is reported as “no observed induction”, the “cell viability compared with palbociclib” value (COV318 cells) is reported as “potently decreases cell viability” and the BSEP inhibition [1] is reported as “did not inhibit”. The “tumor bioluminescence signal (CellTiter Glo) of Hollow Fibers” value [2] was “significant reduction”, the fraction unbound (Plasma protein binding) was < 0.056 and the IC50 (BCRP; BCRP, inside-out membrane vesicles) was 0.422 µM. For the same molecule, the IC50 (BCRP; human, inside-out membrane vesicles from cells overexpressing BCRP, probe E3S (1 μM)) was 0.422 µM, the tolerability ([3]; PO, up to 28 days, up to 250 mg/kg BID) was “generally well tolerated; also recorded: well tolerated with no dose-limiting toxicities observed” and the “28-day NOAEL” value ([3]; dog, in vivo) was “did not identify a 28-day NOAEL”. The “accumulation after 28 days of BID dosing” value ([3]; dog, in vivo) was “Modest accumulation”, the bone marrow cellularity ([3]; dog, in vivo) was “moderately decreased bone marrow cellularity” and the AUC0-24 [3, 4] was 1680 ng·h/mL. It also gave an AUC(0-t) ([3]; female, dog, in vivo, 20 mg/kg/day, AUC0-24) of 2600 ng·h/mL, a Cmax ([3]; female, dog, in vivo, 20 mg/kg/day, Cmax) of 267 ng/mL and a Tmax [3, 4] of 8.8 h. It also gave an AUC0-24 [3, 5] of 5170 ng·h/mL, an AUC(0-t) ([3]; female, dog, in vivo, 100 mg/kg/day, AUC0-24) of 9160 ng·h/mL and a Cmax ([3]; female, dog, in vivo, 100 mg/kg/day, Cmax) of 725 ng/mL. For the same molecule, the Tmax [3, 5] was 10 h, the AUC(0-t) ([3]; female, dog, in vivo, 250 mg/kg, plasma AUC0-24) was 11700 ng·h/mL and the Cmax ([3]; female, dog, in vivo, 250 mg/kg, plasma Cmax) was 961 ng/mL. For the same molecule, the AUC0-24 [3, 6] was 11700 ng·h/mL, the AUC(0-t) ([3]; female, dog, in vivo, 500 mg/kg/day, AUC0-24) was 10100 ng·h/mL and the Cmax ([3]; female, dog, in vivo, 500 mg/kg/day, Cmax) was 919 ng/mL. It also gave a Tmax [3, 6] of 14 h, an AUC(0-t) ([3]; female, dog, in vivo, plasma AUC0-24) of 2600 ng·h/mL and a Cmax ([3]; female, dog, in vivo, plasma Cmax) of 267 ng/mL. The AUC0-24 ([3]; male, dog, in vivo, 20 mg/kg/day) was 1430 ng·h/mL, the AUC(0-t) ([3]; male, dog, in vivo, 20 mg/kg/day, AUC0-24) was 2460 ng·h/mL and the AUC0-24 [3, 7] was 10600 ng·h/mL. It also gave an AUC(0-t) ([3]; male, dog, in vivo, 100 mg/kg/day, AUC0-24) of 6210 ng·h/mL, a Cmax ([3]; male, dog, in vivo, 100 mg/kg/day, Cmax) of 459 ng/mL and a Tmax [3, 7] of 12 h. The AUC(0-t) ([3]; male, dog, in vivo, 250 mg/kg, plasma AUC0-24) was 18800 ng·h/mL, the Cmax ([3]; male, dog, in vivo, 250 mg/kg, plasma Cmax) was 1500 ng/mL and the AUC0-24 [3, 8] was 18800 ng·h/mL. It also gave an AUC(0-t) ([3]; male, dog, in vivo, 500 mg/kg/day, AUC0-24) of 13300 ng·h/mL, a Cmax ([3]; male, dog, in vivo, 500 mg/kg/day, Cmax) of 1220 ng/mL and a Tmax [3, 8] of 14 h. It also gave an AUC(0-t) ([3]; male, dog, in vivo, plasma AUC0-24) of 2460 ng·h/mL, a Cmax ([3]; male, dog, in vivo, plasma Cmax) of 307 ng/mL and an IC50 (MATE1; MATE1 IC50) of 13.3 µM. For the same molecule, the inhibition at 20 μM (MATE1; human, HEK293 cells expressing MATE1, probe metformin (10 μM)) was 62%, the “Maximum Percent inhibition” value (human OCT2; OCT2, HEK293 cells) was 49% and the IC50 (human OCT2; OCT2, HEK293 cells, estimated, read-out: IC50) was 17.1 µM. It also gave an IC50 (human OCT2; read-out: OCT2 IC50) of 17.1 µM.
